Usually TGI stands for the concentration giving total growth inhibition. A higher TGI goes with lower sensitivity of the cells.

Some test systems named below: A498 renal; CCRF-CEM leukemia; IGROV1 ovarian; M14 melanoma; OVCAR-3 ovarian; SF-268 CNS; SNB-19 CNS; UO-31 renal.
Holding throughout (experiment): DTP human tumour cell line panel, 48 h

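Grown in 96-well plates, cells were treated for 48 hours with each compound at five concentrations. Insufficient inhibition: endpoint recorded as highest concentration tested. TGI: concentration producing complete growth inhibition.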

On to `CCCCCCCCOP(=O)(O)OP(=O)(O)OCC1OC(n2ccc(N)nc2=O)C(O)C1O` (stereo not drawn), for which the TGI with A498 renal, in the experiment with CCRF-CEM leukemia, with IGROV1 ovarian, in the experiment with M14 melanoma, in the experiment on OVCAR-3 ovarian and in the experiment with SF-268 CNS was over 100 µM each time. For the same compound, the total growth inhibition concentration (TGI) in the experiment with SNB-19 CNS and in the experiment with UO-31 renal was over 100 µM each time.

Consider `O=C(OC1C#CCSCC#C/C=C\1)c1cnc2ccccc2n1` (stereo not drawn), for which the TGI in the experiment with A498 renal, in the experiment on CCRF-CEM leukemia, with IGROV1 ovarian, with M14 melanoma, in the experiment with OVCAR-3 ovarian and in the experiment on SF-268 CNS was over 100 µM in each case. Also, the concentration for total growth inhibition (TGI) in the experiment with SNB-19 CNS and in the experiment on UO-31 renal was over 100 µM each time.

On to `O=C(c1ccccc1)c1ccc(N2C(=O)/C(=C/c3cccc([N+](=O)[O-])c3)N=C2c2ccccc2)c(N2C(=O)/C(=C/c3cccc([N+](=O)[O-])c3)N=C2c2ccccc2)c1`, for which the TGI in the experiment on A498 renal, in the experiment on IGROV1 ovarian, in the experiment with M14 melanoma, in the experiment on OVCAR-3 ovarian, with SF-268 CNS and in the experiment on SNB-19 CNS was over 100 µM throughout. The same compound yielded a TGI in the experiment on UO-31 renal of over 100 µM.

In the case of `CNC(=O)Nn1c(SC)nc2ccccc21`, the TGI in the experiment on A498 renal, in the experiment with CCRF-CEM leukemia, in the experiment on IGROV1 ovarian, in the experiment with M14 melanoma, in the experiment with SF-268 CNS and with SNB-19 CNS was over 100 µM each time. The TGI in the experiment with UO-31 renal was over 100 µM.

With `CN1CCC2(CC1)C(=O)N(NC(N)=O)C(=O)C2c1ccccc1` (stereo not drawn), the TGI with CCRF-CEM leukemia, with IGROV1 ovarian, in the experiment with M14 melanoma, with OVCAR-3 ovarian, in the experiment with SF-268 CNS and with SNB-19 CNS was over 100 µM each time. In addition, the concentration for total growth inhibition (TGI) in the experiment on UO-31 renal is over 100 µM.

Consider `Cc1nn(C(=O)c2ccc(Cl)cc2)c2c1C(c1ccccc1)SC(N)=N2` (stereo not drawn), for which the TGI in the experiment with CCRF-CEM leukemia, in the experiment on IGROV1 ovarian, with M14 melanoma, in the experiment on OVCAR-3 ovarian, with SF-268 CNS and in the experiment with SNB-19 CNS was over 10 µM throughout.

Consider `COCN1C(=O)[C@@H]2CCCN2C(=O)c2ccc(Cl)cc21`, for which the TGI in the experiment with A498 renal, in the experiment on IGROV1 ovarian, in the experiment on M14 melanoma, with SF-268 CNS, in the experiment on SNB-19 CNS and in the experiment with UO-31 renal was over 100 µM throughout.

`CCCc1c(O)c2ccccc2[nH]c1=O`: the concentration for total growth inhibition (TGI) in the experiment on A498 renal, in the experiment on CCRF-CEM leukemia, in the experiment on IGROV1 ovarian, in the experiment with OVCAR-3 ovarian, in the experiment on SNB-19 CNS and in the experiment with UO-31 renal was over 100 µM in each case.

Turning to `CC(=O)OCc1cc(OC(C)=O)c2cc3c(OC(C)=O)cccc3c(OC(C)=O)c2c1`, the TGI with A498 renal stood at 27.3 µM; in the experiment on IGROV1 ovarian, 40.3 µM; in the experiment on M14 melanoma, 55.7 µM; in the experiment on OVCAR-3 ovarian, 33.6 µM; in the experiment on SF-268 CNS, 58.1 µM; in the experiment with SNB-19 CNS, 50.6 µM. Besides, the TGI in the experiment on UO-31 renal stood at 41.2 µM.

Turning to `Cc1ccc(NC(=O)C23CC4CC(CC(C4)C2)C3)c(C(=O)NNC(=O)c2ccc(Cl)cc2)c1`, the TGI in the experiment with CCRF-CEM leukemia was 55.2 µM; in the experiment with IGROV1 ovarian, 18.2 µM; with M14 melanoma, over 100 µM; in the experiment on OVCAR-3 ovarian, 66.9 µM; in the experiment on SF-268 CNS it was over 100 µM; in the experiment with SNB-19 CNS, 8.91 µM. In the experiment with UO-31 renal, this compound returned a total growth inhibition concentration (TGI) of 37 µM.

Consider `COc1cc(C2SC(N)=Nc3c2c(C)nn3C(=O)Cc2ccccc2)cc(OC)c1OC` (stereo not drawn), for which the TGI in the experiment with A498 renal, in the experiment with CCRF-CEM leukemia, in the experiment with IGROV1 ovarian, with M14 melanoma, in the experiment with SF-268 CNS and with SNB-19 CNS was over 100 µM throughout. Further, in the experiment on UO-31 renal, the total growth inhibition concentration (TGI) is over 100 µM.

In the case of `O=C1NC(=S)NC1C(Cc1ccccc1)c1ccco1` (stereo not drawn), the TGI in the experiment on A498 renal, in the experiment with CCRF-CEM leukemia, in the experiment on IGROV1 ovarian, in the experiment with M14 melanoma, in the experiment with SF-268 CNS and in the experiment on SNB-19 CNS was over 100 µM in each case. Also, the TGI in the experiment on UO-31 renal is over 100 µM.

In the case of `CN1CCN(Cn2nc(-c3ccccc3)n(/N=C/c3ccc(-c4ccc(Cl)cc4Cl)o3)c2=S)CC1`, the TGI with A498 renal amounted to 58.1 µM; with CCRF-CEM leukemia, 23.2 µM; in the experiment with IGROV1 ovarian, 31.8 µM; with M14 melanoma it was 39.1 µM; in the experiment on OVCAR-3 ovarian, 28.5 µM; in the experiment with SF-268 CNS it was 26.2 µM. Also, the total growth inhibition concentration (TGI) with UO-31 renal turned out to be 29 µM.

Take `O=c1[nH]ncc2[nH]c(-c3ccccc3)cc12`: the total growth inhibition concentration (TGI) with CCRF-CEM leukemia, in the experiment with IGROV1 ovarian, in the experiment on M14 melanoma, with OVCAR-3 ovarian, with SF-268 CNS and with SNB-19 CNS was over 100 µM throughout. In the experiment with UO-31 renal, the TGI is over 100 µM.

Consider `N=C(N)SCCSC(=N)N`, for which the concentration for total growth inhibition (TGI) in the experiment on A498 renal, in the experiment on IGROV1 ovarian, in the experiment on M14 melanoma, in the experiment with OVCAR-3 ovarian, with SF-268 CNS and in the experiment with SNB-19 CNS was over 100 µM each time. In the experiment with UO-31 renal, this compound yielded a TGI of over 100 µM.

Turning to `Cn1c(=O)oc2cc(C(=O)CN3CCN(Cc4ccc5c(c4)OCO5)CC3)c(Cl)cc21`, the TGI in the experiment on CCRF-CEM leukemia, with IGROV1 ovarian, with SF-268 CNS, in the experiment on SNB-19 CNS and in the experiment on UO-31 renal was over 100 µM in each case.

Consider `CCN1CCC(O)(/C=C/c2cccc(C)c2)C(C(=O)/C=C/c2cccc(C)c2)C1` (stereo not drawn), for which the TGI turned out to be 4.52 µM in the experiment on A498 renal; 4.12 µM in the experiment with IGROV1 ovarian; 7.47 µM in the experiment on M14 melanoma; 12.4 µM in the experiment with OVCAR-3 ovarian; 3.44 µM with SF-268 CNS; 15.4 µM with SNB-19 CNS. This compound also came in with a TGI with UO-31 renal of 3.06 µM.

Consider `CCOC(=O)C1C(c2ccccc2)C2(C#N)C(=N)OC1(C)C2(C#N)C#N` (stereo not drawn), for which the TGI in the experiment with A498 renal is 97.6 µM; with CCRF-CEM leukemia it was 99.7 µM; in the experiment on IGROV1 ovarian, 37.8 µM; with M14 melanoma, over 100 µM; in the experiment on SF-268 CNS it was 94 µM; in the experiment on SNB-19 CNS it was over 100 µM. For the same compound, the TGI in the experiment on UO-31 renal is 31.4 µM.

The values above are taken from PubChem BioAssay (NCI).
